The values below come from ChEMBL document CHEMBL1201862, “PubChem BioAssay data set” (2004).

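Tested at 5 concentrations; 48 h exposure; 96-well plates; endpoints linearly interpolated, else capped at highest concentration. GI50: concentration for 50% inhibition of growth.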 Activity calls are given as the source filed them. Cut-off read from the data, not from the text of the source: active = GI50 up to about 1.1 µM and inactive = higher.

Among the test systems are A498; A549; ACHN; CAKI-1; EKVX; HCC 2998; HCT-116; HL-60; IGROV-1; MOLT-4; Malme-3M; NCI-H23; NCI-H460; NCI/ADR-RES; OVCAR-5; PC-3; SF-539; T47D; UACC-257; UACC-62.
Common to all, as to assay: NCI anticancer screen, dose series, 48 h

On to `CN(C)c1ccc(NN=C2SC(=N\c3ccccc3)/C(=N/c3ccccc3)S2)cc1`, for which the GI50 with A498 is 50 µM (inactive); in the experiment with A549, 66.2 µM (inactive); in the experiment on ACHN, > 100 µM (inactive); in the experiment on CAKI-1, 76.4 µM (inactive); in the experiment with EKVX, 12.8 µM (inactive); in the experiment with HCC 2998, 26.6 µM (inactive). Moreover, the GI50 is 14.9 µM (inactive) in the experiment on HCT-116; 2.97 µM (inactive) in the experiment with HL-60; > 100 µM (inactive) in the experiment on IGROV-1; 47.2 µM (inactive) in the experiment on MOLT-4; 2.38 µM (inactive) in the experiment with Malme-3M; 12.1 µM (inactive) in the experiment on NCI-H23. Besides, the GI50 with NCI-H460 is 13 µM (inactive); in the experiment on NCI/ADR-RES, 67.8 µM (inactive); with OVCAR-5 it was 70.5 µM (inactive); with PC-3, > 100 µM (inactive); in the experiment with SF-539 it was 53.7 µM (inactive); with T47D, 12.3 µM (inactive). In addition, the results for the GI50 with UACC-257 and in the experiment with UACC-62 were 8.2 µM (inactive) and 9.38 µM (inactive), respectively.
For `CC(O)c1cc2c(s1)C(=O)c1sccc1C2=O` (centres undefined), the GI50 in the experiment on A498 is 0.29 µM (active); in the experiment with A549, 0.155 µM (active); in the experiment on ACHN, 0.15 µM (active); in the experiment with CAKI-1 it was 0.552 µM (active); in the experiment with EKVX, 0.254 µM (active); in the experiment with HCC 2998, 0.202 µM (active). In addition, the GI50 was 0.151 µM (active) in the experiment on HCT-116; 0.0859 µM (active) in the experiment with HL-60; 0.248 µM (active) in the experiment with IGROV-1; 0.268 µM (active) in the experiment on MOLT-4; 0.0215 µM (active) with Malme-3M; 0.0155 µM (active) with NCI-H23. For the same molecule, the GI50 was 0.127 µM (active) in the experiment on NCI-H460; 0.178 µM (active) with NCI/ADR-RES; 0.186 µM (active) with OVCAR-5; 0.289 µM (active) in the experiment on PC-3; 0.0401 µM (active) with SF-539; 0.329 µM (active) in the experiment on T47D. Besides, the GI50 is 0.0183 µM (active) in the experiment with UACC-257 and 0.0519 µM (active) with UACC-62.
For `COc1ccc(OC)c(/N=C/c2cc(OC)c(OC)c(OC)c2)c1`, the GI50 was > 100 µM (inactive) with A498; > 100 µM (inactive) with A549; > 94.4 µM (inactive) in the experiment with ACHN; 80.5 µM (inactive) in the experiment on CAKI-1; > 52.6 µM (inactive) with EKVX; > 100 µM (inactive) in the experiment on HCC 2998. Also, the GI50 with HCT-116 is > 100 µM (inactive); in the experiment with HL-60, 48.9 µM (inactive); in the experiment on IGROV-1, > 82.8 µM (inactive); with MOLT-4, 68.9 µM (inactive); in the experiment on Malme-3M, > 100 µM (inactive); in the experiment with NCI-H23, > 100 µM (inactive). Besides, the GI50 in the experiment with NCI-H460, in the experiment on NCI/ADR-RES, in the experiment with OVCAR-5, in the experiment with PC-3, in the experiment on SF-539 and with T47D was > 100 µM (inactive) throughout. Moreover, the GI50 with UACC-257 and in the experiment with UACC-62 was > 100 µM (inactive) each time.
In the case of `O=C1OC2C(O)C(=O)OC2C1O` (centres undefined), the GI50 in the experiment with A498, with A549, with ACHN, with CAKI-1, in the experiment on EKVX and with HCC 2998 was > 100 µM (inactive) each time. Moreover, the GI50 with HCT-116, in the experiment on HL-60, in the experiment with IGROV-1, with MOLT-4, in the experiment with Malme-3M and in the experiment with NCI-H23 was > 100 µM (inactive) throughout. The GI50 in the experiment on NCI-H460, in the experiment with NCI/ADR-RES, with OVCAR-5, with PC-3, in the experiment with SF-539 and in the experiment with T47D was > 100 µM (inactive) throughout. The GI50 in the experiment on UACC-257 and in the experiment with UACC-62 was > 100 µM (inactive) throughout.
For `COc1ccc(C[C@@H]2CN(C(=O)c3ccccc3)[C@H](Cc3ccc(O)cc3)CN2C(=O)c2ccccc2)cc1Br`, the GI50 in the experiment on A498, in the experiment with A549, in the experiment on ACHN, in the experiment with CAKI-1, with EKVX and in the experiment on HCC 2998 was > 100 µM (inactive) throughout. Moreover, the GI50 in the experiment on HCT-116, in the experiment with HL-60, with IGROV-1, in the experiment with MOLT-4, with Malme-3M and in the experiment on NCI-H23 was > 100 µM (inactive) in each case. The GI50 in the experiment with NCI-H460 was > 100 µM (inactive); in the experiment on NCI/ADR-RES, > 100 µM (inactive); in the experiment on OVCAR-5, > 100 µM (inactive); with PC-3, 55.2 µM (inactive); in the experiment on SF-539, > 100 µM (inactive); in the experiment with T47D, > 100 µM (inactive). Also, the GI50 in the experiment on UACC-257 is > 100 µM (inactive).
As for `C[n+]1c2ccccc2c(N=[N+]=[N-])c2ccccc21`, the GI50 is 6.3 µM (inactive) in the experiment on A498; 6.44 µM (inactive) in the experiment on A549; 4.13 µM (inactive) with ACHN; > 10 µM (inactive) with CAKI-1; 8.32 µM (inactive) in the experiment with EKVX; > 10 µM (inactive) in the experiment with HCC 2998. The GI50 in the experiment on HCT-116 was 4.22 µM (inactive); with HL-60 it was 9.18 µM (inactive); with IGROV-1, 7.03 µM (inactive); in the experiment on MOLT-4, 4.69 µM (inactive); with Malme-3M, 5.42 µM (inactive); with NCI-H23 it was 4.22 µM (inactive). Moreover, the GI50 in the experiment on NCI-H460 is 4.26 µM (inactive); with NCI/ADR-RES, > 10 µM (inactive); with OVCAR-5 it was > 10 µM (inactive); with PC-3 it was 5.37 µM (inactive); with SF-539 it was 4.83 µM (inactive); in the experiment with T47D, > 10 µM (inactive). The GI50 in the experiment on UACC-257 was > 10 µM (inactive); with UACC-62, 7.73 µM (inactive).
For `O=C1CSC2(CC(/C=C/c3ccccc3O)=NN2c2cccc(S(=O)(=O)O)c2)N1c1nc2ccccc2s1` (centres undefined), the GI50 is 42.9 µM (inactive) in the experiment with A498; 50.4 µM (inactive) in the experiment on A549; 32.1 µM (inactive) in the experiment with ACHN; 28.3 µM (inactive) in the experiment on CAKI-1; 48.1 µM (inactive) in the experiment on EKVX; 21.9 µM (inactive) in the experiment on HCC 2998. Moreover, the GI50 is 38.3 µM (inactive) in the experiment with HCT-116; 15.7 µM (inactive) with HL-60; 23.3 µM (inactive) with IGROV-1; 20.3 µM (inactive) in the experiment on MOLT-4; 41.9 µM (inactive) in the experiment with Malme-3M; 22.1 µM (inactive) in the experiment with NCI-H23. Moreover, the GI50 in the experiment with NCI-H460 was 34.1 µM (inactive); with NCI/ADR-RES, 26.7 µM (inactive); with OVCAR-5, 26.9 µM (inactive); in the experiment on PC-3, 64 µM (inactive); with SF-539, 16.3 µM (inactive); in the experiment with T47D, 19.6 µM (inactive). Further, the GI50 in the experiment with UACC-257 is 41.7 µM (inactive); in the experiment on UACC-62, 29.4 µM (inactive).
As to `COC(=O)C1C(O)C(C)C(=O)C(C)/C=C\C=C(C)C(=O)Nc2c(C)c(OC(C)=O)c3c(c2O)C(=O)C(C)=C2OCOC(=C23)C(C)=CC(C)(O)C(O)C(C)C1O` (centres undefined), the GI50 in the experiment on A498 was 24.9 µM (inactive); in the experiment on A549 it was 20.2 µM (inactive); with ACHN, 26.2 µM (inactive); in the experiment with CAKI-1, 44.2 µM (inactive); in the experiment with EKVX it was 65.2 µM (inactive); with HCC 2998 it was 21 µM (inactive). For the same molecule, the GI50 in the experiment on HCT-116 is 24.9 µM (inactive); in the experiment with HL-60, 18.6 µM (inactive); in the experiment with IGROV-1, 21.7 µM (inactive); with MOLT-4, 29.4 µM (inactive); in the experiment with Malme-3M, 22.2 µM (inactive); in the experiment with NCI-H23 it was 17.5 µM (inactive). Further, the GI50 was 32.7 µM (inactive) with NCI-H460; 46.9 µM (inactive) in the experiment with NCI/ADR-RES; 29 µM (inactive) in the experiment with OVCAR-5; 25.1 µM (inactive) in the experiment on PC-3; 47.4 µM (inactive) with SF-539; 33.3 µM (inactive) in the experiment with T47D. Further, the GI50 was 18.8 µM (inactive) in the experiment on UACC-257 and 21.7 µM (inactive) in the experiment on UACC-62.
Turning to `COC(=O)C1=C(O)C(C(=O)OC)[C@]2(O)[C@H](C(=O)OC)[C@H]1C[C@@H](c1ccc(O)cc1)[C@H]2C(=O)OC` (some centres undefined), the GI50 with A498 was 33.3 µM (inactive); in the experiment with A549 it was 32.5 µM (inactive); in the experiment on ACHN it was 36.4 µM (inactive); with CAKI-1, 21.2 µM (inactive); with EKVX, 32.3 µM (inactive); in the experiment on HCC 2998, 19.9 µM (inactive). Besides, the GI50 was 27.7 µM (inactive) with HCT-116; 27.2 µM (inactive) in the experiment with HL-60; 41.2 µM (inactive) with IGROV-1; 30.3 µM (inactive) in the experiment on MOLT-4; 32.7 µM (inactive) with Malme-3M; 28.1 µM (inactive) with NCI-H23. In addition, the GI50 with NCI-H460 is 23.7 µM (inactive); in the experiment on NCI/ADR-RES it was 30.1 µM (inactive); with OVCAR-5, 23.8 µM (inactive); with PC-3, 19.9 µM (inactive); in the experiment with SF-539, 30.3 µM (inactive); in the experiment on T47D it was 23.9 µM (inactive). The results for the GI50 in the experiment on UACC-257 and with UACC-62 were 19.4 µM (inactive) and 31.3 µM (inactive), respectively.
`COc1ccc2c(c1O)-c1c(OC)c(OC)cc3c1[C@H](C2)[N+](C)(C)CC3`: the GI50 in the experiment with A498, in the experiment with A549, in the experiment on ACHN, with CAKI-1, with EKVX and in the experiment with HCC 2998 was > 100 µM (inactive) throughout. Moreover, the GI50 in the experiment with HCT-116, in the experiment with HL-60, with IGROV-1, in the experiment with MOLT-4, in the experiment on Malme-3M and with NCI-H23 was > 100 µM (inactive) in each case. The GI50 in the experiment on NCI-H460, in the experiment on NCI/ADR-RES, in the experiment with OVCAR-5, in the experiment on PC-3, in the experiment with SF-539 and in the experiment on T47D was > 100 µM (inactive) each time. The GI50 in the experiment on UACC-257 and with UACC-62 was > 100 µM (inactive) throughout.
